{"source": "patent US20100184852A1", "about": "“ORGANIC COMPOUNDS FOR TREATMENT OF DISORDERS CONNECTED TO IMPAIRED NEUROTRANSMISSION” (priority 2006, published 2010)", "key": {"[1]": {"target": "T1, human serotonin re-uptake transporter (hSERT) (Homo sapiens, UniProt P31645)", "T1 construct": "host or cells: HEK-293", "T1 sequence (P31645 whole entry)": "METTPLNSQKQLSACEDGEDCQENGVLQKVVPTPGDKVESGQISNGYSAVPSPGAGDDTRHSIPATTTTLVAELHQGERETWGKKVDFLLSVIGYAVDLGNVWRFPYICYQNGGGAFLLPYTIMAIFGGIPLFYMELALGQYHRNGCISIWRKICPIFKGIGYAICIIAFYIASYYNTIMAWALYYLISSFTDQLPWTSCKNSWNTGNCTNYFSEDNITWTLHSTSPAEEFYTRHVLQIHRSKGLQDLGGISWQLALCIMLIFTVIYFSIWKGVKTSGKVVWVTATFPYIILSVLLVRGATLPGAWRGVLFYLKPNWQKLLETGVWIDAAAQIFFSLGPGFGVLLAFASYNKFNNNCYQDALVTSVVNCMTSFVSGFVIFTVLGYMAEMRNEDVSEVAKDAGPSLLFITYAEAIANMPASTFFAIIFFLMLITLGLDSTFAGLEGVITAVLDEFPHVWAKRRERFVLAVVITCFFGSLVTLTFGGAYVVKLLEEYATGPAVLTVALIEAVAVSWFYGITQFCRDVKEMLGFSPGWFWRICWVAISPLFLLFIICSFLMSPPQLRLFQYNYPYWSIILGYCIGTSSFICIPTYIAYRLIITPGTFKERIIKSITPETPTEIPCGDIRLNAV", "assay": "Serotonin uptake inhibition in HEK-293 cells expressing hSERT", "assay_type": "cell-based", "conditions": "transfected HEK-293 cells; 20 nM (3H) serotonin, 30 minutes; average +/− s.e.m.; read-out: IC50 for tritiated serotonin uptake", "experimental": "HEK-293 cells stably expressing the human serotonin re-uptake transporter (hSERT) were obtained from R. Blakely, Vanderbilt University, USA. The cells were routinely grown in Dulbeco's Modified Eagles Medium, purchased from Bioconcept, Allschwil, Switzerland containing 10% fetal calf serum, penicillin, streptomycin, L-glutamine and the antibiotic G418 and passaged by trypsinisation. One day prior to the assay cells were seeded in the above mentioned medium. Immediately prior to the assay the medium was replaced by Krebs Ringers bicarbonate buffer, purchased from Sigma Chemicals Ltd., supplemented with 35 μM pargyline, 2.2 mM CaCl2, 1 mM ascorbic acid and 5 mM N-2-hydroxyethylpiperazine-N′-2-ethanesulfonic acid (buffer called “Hepes”). Serotonin uptake into the cells was determined by addition of radio-labeled (3H) serotonin (Amersham Biosciences GE Healthcare, Slough, UK) to a concentration of 20 nM, and incubation for 30 minutes at room temperature. Following removal of unincorporated label by gentle washing three times with the above buffer, incorporated serotonin was quantified by liquid scintillation counting.\nThe effect of the compounds of formula I on the serotonin uptake was determined by its inclusion in the assay at a range of concentrations between 0.03 and 100 μM for 10 minutes prior to and during the addition of (3H) serotonin/citalopram. Serotonin uptake via the transporter was inhibited by ligustilide, 3-butylphthalide, senkyunolide A, senkyunolide C, senkyunolide B, and cnidilide, respectively, in a dose dependent manner, with IC50 values as shown in Table 2."}, "[2]": {"target": "T2, Monoamine oxidase A (MAO-A) (Homo sapiens, UniProt P21397)", "T2 sequence (P21397 1-527)": "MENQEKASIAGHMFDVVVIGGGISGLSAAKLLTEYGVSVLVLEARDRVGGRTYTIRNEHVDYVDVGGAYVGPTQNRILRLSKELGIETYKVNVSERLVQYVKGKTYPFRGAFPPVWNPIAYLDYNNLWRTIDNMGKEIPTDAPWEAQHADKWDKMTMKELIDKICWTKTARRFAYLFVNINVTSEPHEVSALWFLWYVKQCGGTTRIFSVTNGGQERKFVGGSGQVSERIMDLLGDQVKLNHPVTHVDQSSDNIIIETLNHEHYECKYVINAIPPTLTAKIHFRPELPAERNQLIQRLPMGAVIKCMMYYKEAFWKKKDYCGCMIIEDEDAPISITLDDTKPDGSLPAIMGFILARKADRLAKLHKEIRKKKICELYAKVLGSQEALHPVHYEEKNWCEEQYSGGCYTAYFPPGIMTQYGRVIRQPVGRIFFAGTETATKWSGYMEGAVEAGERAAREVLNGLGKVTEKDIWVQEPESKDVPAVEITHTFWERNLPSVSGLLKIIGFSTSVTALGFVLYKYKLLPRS", "assay": "Monoaminooxidase A inhibition (H2O2/vanillic acid/HRP readout)", "assay_type": "biochemical", "experimental": "(§1) The organic amines p-tyramine or benzylamine were used as substrates for the Monoamine oxidase A (MAO-A) and B (MAO-B) enzymes respectively. The H2O2 produced by this reaction was quantified by reaction with vanillic acid, catalysed by horse radish peroxidase (HRP).\n(§2) The reactions were carried out in polystyrene microtitre plates. The MAO enzymes (final concentration 2 U/ml) were mixed with either p-tyramine (Sigma, final concentration 0.5 mM) or benzylamine (Sigma, final concentration 0.5 mM) as appropriate and the chromogenic solution (containing vanillic acid (Fluka), 4-aminoantipyrine (Fluka) and horse radish peroxidase (Sigma), final concentrations 0.25 mM, 0.125 mM and 1 U/ml respectively) in 0.2 M potassium phosphate buffer pH 7.6. The reactions were followed in a microtitre plate absorbance reader eg Spectramax M5 (Molecular Devices Corporation). Absorbance readings at 495 nm were taken every 15 seconds for 40 minutes and the initial reaction velocities calculated by linear regression using SOFTmaxPro (Molecular Devices Corporation).\n(§3) The effect of ligustilide, 3-butylphthalide, senkyunolide C and cnidilide on the monoamine oxidase enzymes was determined by their inclusion in the assay at a range of concentrations between 0.03 and 100 μM for 10 minutes prior to and during the incubation with substrate. To determine the effect of the compounds on the HRP catalyzed portion of the reaction, the MAO enzyme was replaced by H2O2 (Molecular Probes, final concentration 0.2 mM). The reactions containing MAO-A and MAO-B were both inhibited by […] according to formula I in a dose dependent manner, whilst the control reaction, was unaffected. The measured IC50 values for inhibition of monoamine oxidase activity by ligustilide, 3-butylphthalide, senkyunolide C and enidilide, respectively, are shown in Table 3."}, "[3]": {"target": "T3, Monoamine oxidase B (MAO-B) (Homo sapiens, UniProt P27338)", "T3 sequence (P27338 1-520)": "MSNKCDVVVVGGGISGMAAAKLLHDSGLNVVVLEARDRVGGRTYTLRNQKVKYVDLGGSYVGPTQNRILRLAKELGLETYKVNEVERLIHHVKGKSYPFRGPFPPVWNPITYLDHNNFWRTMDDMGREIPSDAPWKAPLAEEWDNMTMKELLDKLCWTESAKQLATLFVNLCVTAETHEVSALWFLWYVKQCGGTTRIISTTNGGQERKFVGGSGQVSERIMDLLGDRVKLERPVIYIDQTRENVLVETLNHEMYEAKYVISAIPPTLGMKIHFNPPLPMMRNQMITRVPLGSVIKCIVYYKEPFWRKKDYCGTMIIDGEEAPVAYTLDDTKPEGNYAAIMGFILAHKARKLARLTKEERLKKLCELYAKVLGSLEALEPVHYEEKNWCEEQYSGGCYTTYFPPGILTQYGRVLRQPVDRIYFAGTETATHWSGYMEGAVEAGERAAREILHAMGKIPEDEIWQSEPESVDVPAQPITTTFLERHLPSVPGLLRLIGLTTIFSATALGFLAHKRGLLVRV", "assay": "Monoaminooxidase B inhibition (H2O2/vanillic acid/HRP readout)", "assay_type": "biochemical", "experimental": "as §1, §2, §3"}}}
{"smiles": "CCCC[C@@H]1OC(=O)c2ccccc21", "note": "(stereo in doubt) [3-n-butylphthalide, 3-n-Butylphthalide]", "values": [{"measurement": "IC50", "setting": "[1]", "result": 35.2, "unit": "µM"}, {"measurement": "IC50", "setting": "[2]", "result": 8.1, "unit": "µM"}, {"measurement": "IC50", "setting": "[3]", "result": 56.1, "unit": "µM"}]}
{"smiles": "CCC/C=C1\\OC(=O)C2=C1CCC=C2", "note": "[Ligustilide]", "values": [{"measurement": "IC50", "setting": "[1]", "result": 20.4, "unit": "µM"}, {"measurement": "IC50", "setting": "[2]", "result": 15.7, "unit": "µM"}, {"measurement": "IC50", "setting": "[3]", "result": 24.9, "unit": "µM"}]}
